What was measured:
Format in all cases: in vivo
[1] = tested on: Venturia inaequalis; experiment: Venturia test (apple)/protective; conditions: apple young plants, protective spray, application rate 250 ppm, evaluation 10 days after inoculation; 0% = control, 100% = no infection
Protocol: Venturia Test (Apple)/Protective [table] To produce an appropriate active ingredient formulation, 1 part by weight of active ingredient is mixed with the specified amounts of solvent and emulsifier, and the concentrate is diluted with water to the desired concentration. To test for protective activity, young plants are sprayed with the active ingredient formulation at the stated application rate. After the spray coating has dried on, the plants are inoculated with an aqueous conidia suspension of the apple scab pathogen Venturia inaequalis and then remain in an incubation cabin at approx. 20° C. and 100% relative air humidity for 1 day. The plants are then placed in a greenhouse at about 21° C. and a relative air humidity of approx. 90%.

[2] = tested on: Alternaria solani; experiment: Alternaria test (tomato)/protective; conditions: tomato young plants, protective spray, application rate 250 ppm, evaluation 3 days after inoculation; 0% = control, 100% = no infection
Protocol: Alternaria Test (Tomato)/Protective [table] To produce an appropriate active ingredient formulation, 1 part by weight of active ingredient is mixed with the specified amounts of solvent and emulsifier, and the concentrate is diluted with water to the desired concentration. To test for protective activity, young plants are sprayed with the active ingredient formulation at the stated application rate. After the spray coating has dried on, the plants are inoculated with an aqueous spore suspension of Alternaria solani. The plants are then placed in an incubation cabin at approx. 20° C. and 100% relative air humidity.

[3] = tested on: Phytophthora infestans; conditions: tomato young plants, protective spray, application rate 250 ppm, evaluation 3 days after inoculation; 0% = control, 100% = no infection
[4] = tested on: Plasmopara viticola; experiment: Plasmopara test (grapevine)/protective; conditions: grapevine young plants, protective spray, application rate 250 ppm, evaluation 6 days after inoculation; 0% = control, 100% = no infection
Protocol: Plasmopara Test (Grapevine)/Protective [table] To produce an appropriate active ingredient formulation, 1 part by weight of active ingredient is mixed with the specified amounts of solvent and emulsifier, and the concentrate is diluted with water to the desired concentration. To test for protective activity, young plants are sprayed with the active ingredient formulation at the stated application rate. After the spray coating has dried on, the plants are inoculated with an aqueous spore suspension of Plasmopara viticola and then remain in an incubation cabin at approx. 20° C. and 100% relative air humidity for 1 day. Subsequently, the plants are placed in a greenhouse at approx. 21° C. and approx. 90% air humidity for 4 days. The plants are then moistened and placed in an incubation cabin for 1 day.

Row | SMILES | Efficacy (%) [1] [%] | Efficacy (%) [2] [%] | other results
1 | Cn1c(=O)c2sc3c(=S)n(C)c(=O)c3sc2c1=S [drawing 25] | 71 |  | 
2 | Cn1c(=O)c2sc3c(=S)n(C)c(=O)c3sc2c1=S [drawing 27] |  | 76 | 
3 | Cn1c(=O)c2sc3c(=O)n(C)c(=S)c3sc2c1=O [drawing 26] |  | 95 | 
4 | Cn1c(=O)c2sc3c(=O)n(C)c(=S)c3sc2c1=O [drawing 22] |  |  | Efficacy (%) [3]: 72%
5 | Cn1c(=O)c2sc3c(=O)n(C)c(=S)c3sc2c1=O [drawing 23] |  |  | Efficacy (%) [4]: 83%
6 | Cn1c(=O)c2sc3c(=O)n(C)c(=S)c3sc2c1=O [drawing 24] | 99 |  | 
